The record followed here is patent US9247741B2, “Use of macrocyclic picolinamides as fungicides” (DOW AGROSCIENCES LLC, priority 2013, dated 2016).

Assay [1] deals with Mycosphaerella graminicola; Anamorph: Septoria tritici. Description: Leaf blotch of wheat (SEPTTR) disease control on wheat seedlings. As to conditions: Zymoseptoria tritici, wheat; for pest or weed control at 100 ppm: 100 ppm (high volume); for pest or weed control at 121.5 g/ha: 121.5 g/H (low volume track spray). Format: in vivo. On the procedure:
Evaluation of Fungicidal Activity: Leaf Blotch of Wheat (Mycosphaerella graminicola; Anamorph: Septoria tritici; Bayer Code […]) Technical grades of materials were dissolved in acetone, which were then mixed with nine volumes of water containing 110 ppm Triton X-100. The fungicide solutions were applied onto wheat seedlings using an automated booth sprayer to run-off. All sprayed plants were allowed to air dry prior to further handling. All fungicides were evaluated using the aforementioned method for their activity vs. all target diseases. Wheat leaf blotch and brown rust activity were also evaluated using track spray applications, in which case the fungicides were formulated as EC formulations, containing 0.1% Trycol 5941 in the spray solutions. Wheat plants (variety Yuma) were grown from seed in a greenhouse in 50% mineral soil/50% soil-less Metro mix until the first leaf was fully emerged, with 7-10 seedlings per pot. These plants were inoculated with an aqueous spore suspension of Septoria tritici either prior to or after fungicide treatments. After inoculation the plants were kept in 100% relative humidity (one day in a dark dew chamber followed by two to three days in a lighted dew chamber at 20° C.) to permit spores to germinate and infect the leaf. The plants were then transferred to a greenhouse set at 20° C. for disease to develop. When disease symptoms were fully expressed on the l^st leaves of untreated plants, infection levels were assessed on a scale of 0 to 100 percent disease severity. Percent disease control was calculated using the ratio of disease severity on treated plants relative to untreated plants.

The subject of assay [2] is Puccinia triticina. The experiment in a line: Wheat brown rust (PUCCRT) disease control on wheat seedlings. The class given is in vivo. As to conditions: for pest or weed control at 100 ppm: 100 ppm (high volume); for pest or weed control at 121.5 g/ha: 121.5 g/H (low volume track spray). Here is the method:
Technical grades of materials were dissolved in acetone, which were then mixed with nine volumes of water containing 110 ppm Triton X-100. The fungicide solutions were applied onto wheat seedlings using an automated booth sprayer to run-off. All sprayed plants were allowed to air dry prior to further handling. All fungicides were evaluated using the aforementioned method for their activity vs. all target diseases. Wheat leaf blotch and brown rust activity were also evaluated using track spray applications, in which case the fungicides were formulated as EC formulations, containing 0.1% Trycol 5941 in the spray solutions. Wheat plants (variety Yuma) were grown from seed in a greenhouse in 50% mineral soil/50% soil-less Metro mix until the first leaf was fully emerged, with 7-10 seedlings per pot. These plants were inoculated with an aqueous spore suspension of Septoria tritici either prior to or after fungicide treatments. After inoculation the plants were kept in 100% relative humidity (one day in a dark dew chamber followed by two to three days in a lighted dew chamber at 20° C.) to permit spores to germinate and infect the leaf. The plants were then transferred to a greenhouse set at 20° C. for disease to develop. When disease symptoms were fully expressed on the l^st leaves of untreated plants, infection levels were assessed on a scale of 0 to 100 percent disease severity. Percent disease control was calculated using the ratio of disease severity on treated plants relative to untreated plants. Evaluation of Fungicidal Activity: Wheat Brown Rust (Puccinia triticina; Synonym: Puccinia recondite f sp. tritici; Bayer code PUCCRT) Wheat plants (variety Yuma) were grown from seed in a greenhouse in 50% mineral soil/50% soil-less Metro mix until the first leaf was fully emerged, with 7-10 seedlings per pot. These plants were inoculated with an aqueous spore suspension of Puccinia triticina either prior to or after fungicide treatments. After inoculation the plants were kept in a dark dew room at 22° C. with 100% relative humidity overnight to permit spores to germinate and infect the leaf. The plants were then transferred to a greenhouse set at 24° C. for disease to develop. Fungicide formulation, application and disease assessment followed the procedures as described in the Example A.

Where [3] appears, read: 24 h, 1 Day Protectant, read-out: SEPTTR 1DP disease control rating.
The mark [4] stands for this setting: 72 h, 3 Day Curative, read-out: SEPTTR 3DC disease control rating.
Where [5] appears, read: 24 h, 1 Day Protectant, read-out: PUCCRT 1DP disease control rating.
Where [6] appears, read: 72 h, 3 Day Curative, read-out: PUCCRT 3DC disease control rating.

SMILES strings stand for the structures. Like-named read-outs stand apart in the source and are kept apart here.

In the case of `COc1ccnc(C(=O)N[C@H]2CCC[C@H](OCC3CC3)[C@@H](Cc3ccccc3)[C@H](C)OC2=O)c1OC(C)=O` [Compound 76], the pest or weed control at 100 ppm in assay [1] (setting [3]), in assay [1] (setting [4]), in assay [2] (setting [5]) and in assay [2] (setting [6]) was greater than 70% each time.
Turning to `CCCC[C@H]1[C@H](C)OC(=O)[C@@H](NC(=O)c2nccc(OC)c2OC(C)=O)CCC[C@@H]1OCc1ccccc1` [Compound 63], the pest or weed control at 121.5 g/ha in assay [1] (setting [3]), in assay [1] (setting [4]), in assay [2] (setting [5]) and in assay [2] (setting [6]) was greater than 70% in each case.
With `CCCO[C@H]1CCC[C@H](NC(=O)c2nccc(OC)c2O)C(=O)O[C@@H](C)[C@@H]1Cc1ccc(F)cc1` [Compound 37], the pest or weed control at 100 ppm is greater than 70% in assay [1] (setting [3]), less than 70% in assay [1] (setting [4]), greater than 70% in assay [2] (setting [5]) and greater than 70% in assay [2] (setting [6]).
Consider `COc1ccnc(C(=O)N[C@H]2CCC[C@H](OCc3ccccc3)[C@@H](CCC(C)C)[C@H](C)OC2=O)c1O` [Compound 58], for which the pest or weed control at 100 ppm in assay [1] (setting [3]) is less than 70%; in assay [1] (setting [4]), less than 70%; in assay [2] (setting [5]), greater than 70%; in assay [2] (setting [6]) it was greater than 70%.
Consider `CCOCC(=O)OCOc1c(OC)ccnc1C(=O)N[C@H]1CCC[C@H](Oc2ccc(C)cc2)[C@@H](Cc2ccc(F)cc2)[C@H](C)OC1=O` [Compound 35], for which the pest or weed control at 121.5 g/ha in assay [1] (setting [3]) is less than 70%; in assay [1] (setting [4]) it was less than 70%; in assay [2] (setting [5]) it was greater than 70%; in assay [2] (setting [6]), less than 70%.
On to `COc1ccnc(C(=O)N[C@H]2CCC[C@H](OC(=O)C3CC3)[C@@H](Cc3ccc(F)cc3)[C@H](C)OC2=O)c1O` [Compound 2], for which the pest or weed control at 100 ppm was greater than 70% in assay [1] (setting [3]), less than 70% in assay [1] (setting [4]), greater than 70% in assay [2] (setting [5]) and greater than 70% in assay [2] (setting [6]).
With `CCCC[C@H]1[C@H](C)OC(=O)[C@@H](NC(=O)c2nccc(OC)c2O)CCC[C@@H]1OCCCC(F)(F)F` [Compound 13], the pest or weed control at 100 ppm in assay [1] (setting [3]) was greater than 70%; in assay [1] (setting [4]) it was less than 70%; in assay [2] (setting [5]), greater than 70%; in assay [2] (setting [6]) it was less than 70%.
As to `COc1ccnc(C(=O)N[C@H]2CCC[C@H](Oc3ccc(C)cc3)[C@@H](Cc3ccc(F)cc3)[C@H](C)OC2=O)c1OCOC(C)=O` [Compound 42], the pest or weed control at 121.5 g/ha in assay [1] (setting [3]) is greater than 70%; in assay [1] (setting [4]) it was greater than 70%; in assay [2] (setting [5]), greater than 70%; in assay [2] (setting [6]), less than 70%.
For the molecule `COc1ccnc(C(=O)N[C@H]2CCC[C@H](OCC3CC3)[C@@H](Cc3ccc(F)cc3)[C@H](C)OC2=O)c1O` [Compound 26], the pest or weed control at 100 ppm in assay [1] (setting [3]) was greater than 70%; in assay [1] (setting [4]), less than 70%; in assay [2] (setting [5]) it was greater than 70%; in assay [2] (setting [6]), greater than 70%.
Consider `CCCC[C@H]1[C@H](C)OC(=O)[C@@H](NC(=O)c2nccc(OC)c2OCOC(C)=O)CCC[C@@H]1OCc1ccccc1` [Compound 15], for which the pest or weed control at 121.5 g/ha in assay [1] (setting [3]), in assay [1] (setting [4]), in assay [2] (setting [5]) and in assay [2] (setting [6]) was greater than 70% throughout.
As to `COc1ccnc(C(=O)N[C@H]2CCC[C@H](Oc3ccc(C)cc3)[C@@H](Cc3ccc(F)cc3)[C@H](C)OC2=O)c1O` [Compound 38], the pest or weed control at 100 ppm in assay [1] (setting [3]) is greater than 70%; in assay [1] (setting [4]), less than 70%; in assay [2] (setting [5]) it was greater than 70%; in assay [2] (setting [6]), less than 70%.
In the case of `CCCC[C@H]1[C@H](C)OC(=O)[C@@H](NC(=O)c2nccc(OC)c2O)CCC[C@@H]1Oc1ccccc1` [Compound 29], the pest or weed control at 100 ppm in assay [1] (setting [3]) was greater than 70%; in assay [1] (setting [4]), less than 70%; in assay [2] (setting [5]) it was greater than 70%; in assay [2] (setting [6]), greater than 70%.
Regarding `COc1ccnc(C(=O)N[C@H]2CCC[C@H](OC(=O)C3CC3)[C@@H](Cc3ccc(F)cc3)[C@H](C)OC2=O)c1OCOC(C)=O` [Compound 43], the pest or weed control at 121.5 g/ha in assay [1] (setting [3]), in assay [1] (setting [4]), in assay [2] (setting [5]) and in assay [2] (setting [6]) was greater than 70% in each case.
For `CCCC[C@H]1[C@H](C)OC(=O)[C@@H](NC(=O)c2nccc(OC)c2OC(C)=O)CCC[C@@H]1OC(=O)C(C)C` [Compound 44], the pest or weed control at 121.5 g/ha in assay [1] (setting [3]), in assay [1] (setting [4]), in assay [2] (setting [5]) and in assay [2] (setting [6]) was greater than 70% throughout.
`CCCC[C@H]1[C@H](C)OC(=O)[C@@H](NC(=O)c2nccc(OC)c2OCOC(C)=O)CCC[C@@H]1OC(=O)C(C)C` [Compound 50]: the pest or weed control at 121.5 g/ha in assay [1] (setting [3]), in assay [1] (setting [4]), in assay [2] (setting [5]) and in assay [2] (setting [6]) was greater than 70% in each case.
As for `COc1ccnc(C(=O)N[C@H]2CCC[C@H](OCC(C)C)[C@@H](Cc3ccccc3)[C@H](C)OC2=O)c1OC(C)=O` [Compound 72], the pest or weed control at 121.5 g/ha in assay [1] (setting [3]), in assay [1] (setting [4]), in assay [2] (setting [5]) and in assay [2] (setting [6]) was greater than 70% in each case.
For the molecule `CCCC[C@H]1[C@H](C)OC(=O)[C@@H](NC(=O)c2nccc(OC)c2O)CCC[C@@H]1OCc1ccccc1` [Compound 47], the pest or weed control at 100 ppm is greater than 70% in assay [1] (setting [3]), less than 70% in assay [1] (setting [4]), greater than 70% in assay [2] (setting [5]) and greater than 70% in assay [2] (setting [6]).
As for `COc1ccnc(C(=O)N[C@H]2CCC[C@H](Oc3ccc(C)cc3)[C@@H](Cc3ccc(F)cc3)[C@H](C)OC2=O)c1OC(C)=O` [Compound 21], the pest or weed control at 121.5 g/ha in assay [1] (setting [3]) is greater than 70%; in assay [1] (setting [4]) it was less than 70%; in assay [2] (setting [5]) it was greater than 70%; in assay [2] (setting [6]), less than 70%.
As to `CCCC[C@H]1[C@H](C)OC(=O)[C@@H](NC(=O)c2nccc(OC)c2O)CCC[C@@H]1OCC1CC1` [Compound 32], the pest or weed control at 100 ppm in assay [1] (setting [3]), in assay [1] (setting [4]), in assay [2] (setting [5]) and in assay [2] (setting [6]) was greater than 70% throughout.
As for `COc1ccnc(C(=O)N[C@H]2CCC[C@H](Oc3ccc(C)cc3)[C@@H](Cc3ccccc3)[C@H](C)OC2=O)c1OC(C)=O` [Compound 55], the pest or weed control at 121.5 g/ha in assay [1] (setting [3]) is greater than 70%; in assay [1] (setting [4]), less than 70%; in assay [2] (setting [5]) it was greater than 70%; in assay [2] (setting [6]), greater than 70%.
In the case of `CCCC[C@H]1[C@H](C)OC(=O)[C@@H](NC(=O)c2nccc(OC)c2OCOC(=O)COCC)CCC[C@@H]1OC(=O)C(C)C` [Compound 71, (2S,3S,4S,8S)-3-butyl-8-(3-((2-ethoxyacetoxyl)methoxy)-4-methoxypicolinamido)-2-methyl-9-oxooxonan-4-yl isobutyrate], the pest or weed control at 121.5 g/ha in assay [1] (setting [3]), in assay [1] (setting [4]), in assay [2] (setting [5]) and in assay [2] (setting [6]) was greater than 70% throughout.
